The target of the assay is farnesyl protein transferase. As to the kind of experiment: Inhibition of farnesyl protein transferase (test of WO 95/10514). Format: biochemical. The note with it: percent inhibition relative to DMSO vehicle control, IC50 estimated. The source says: The compounds of the invention can be tested by standard methods, for example by those published in published PCT application WO 95/10514 published Apr. 20, 1995 (starting at page 61), the disclosure of which is hereby incorporated herein by reference. Particularly relevant assays and studies include In vitro enzyme assays, Cell-Based Assays, Cell Mat Assays, and In Vivo Anti-Tumor Studies.
Such Assays and Studies indicate that compounds of the Formula I above are selective inhibitors of Ras-FPT and can be used as anti-tumor agents. The following Table presents IC50 values obtained in the test for Inhibition of farnesyl protein transferase, reported in published PCT application WO 95/10514. Percent inhibition was calculated relative to the DMSO vehicle control, and an IC50 value was estimated.
For `O=C(Cc1cc[n+]([O-])cc1)N1CCN(C2c3ccc(Cl)cc3[S+]([O-])Cc3cccnc32)CC1` (centres unmarked) [Example 17A (sulfoxide), 4-(8-Chloro-5,11-dihydro-[1]benzothiepino[4,3-b]pyridin-11-yl)-1-(4-pyridine-acetyl)piperazine N1,6,-dioxide], the IC50 (commonly the concentration that inhibits the measured activity by half) was greater than 4 µM.
In the case of `O=C(CC1CCNCC1)N1CCN(C2c3ccc(Cl)cc3SCc3cccnc32)CC1` (centres unmarked) [Example 12A, 4-(8-Chloro-5,11-dihydro-[1]benzothiepino[4,3-b]pyridin-11-yl)-1-(4-piperidinyl-acetyl)piperazine] it was 1.1 µM; in that of `CN1CCC(CC(=O)N2CCN(C3c4ccc(Cl)cc4SCc4cccnc43)CC2)CC1` (centres unmarked) [Example 10, 4-(8-Chloro-5,11-dihydro-[1]benzothiepino[4,3-b]pyridin-11-yl)-1-(1-methyl-4-piperidine-acetyl)piperazine], 2.1 µM.
With `N#CNC(=NCc1ccncc1)N1CCC(=C2c3ccc(Cl)cc3OCc3cccnc32)CC1` [Example 3, 4-(8-Chloro-5,11-dihydro[1]benzoxepino[4,3-b]pyridin-11-ylidene)-N-cyano-N'-(4-pyridinylmethyl)-1-piperidine-carboximidamide] the figure was greater than 0.042 µM; with `N#CC=C(c1ccc(F)cc1)N1CCC(=C2c3ccc(Cl)cc3SCc3cccnc32)CC1` [Example 33, 3-[4-(8-Chloro-5,11-dihydro-[1]benzothiepino[4,3-b]pyridin-11-ylidene)-piperidin-1-yl]-3-(4'-fluorophenyl)-2-propene-nitrile], greater than 0.42 µM.
`CN1Cc2cccnc2C(N2CCN(C(=O)Cc3ccncc3)CC2)c2ccc(Cl)cc21` (centres unmarked) [Example 35, 4-(8-Chloro-6,11-dihydro-6-methyl-5H-pyrido[3,2-c][1]benzazepin-11-yl)-1-(4-pyridine-acetyl)piperazine]: the IC50 was 0.84 µM.
With `O=C(Cc1cc[n+]([O-])cc1)N1CCC(=C2c3ccc(Cl)cc3OCc3cccnc32)CC1` [Example 7B, 4-(8-Chloro-5,11-dihydro[1]benzoxepino[4,3-b]pyridin-11-ylidene)-1-(4-pyridine-acetyl)piperidine N1-oxide] the figure was 1.52 µM; with `CN1Cc2cccnc2C(N2CCN(C(=NCc3ccncc3)NC#N)CC2)c2ccc(Cl)cc21` (centres unmarked) [Example 37, 4-(8-Chloro-6,11-dihydro-6-methyl-5H-pyrido[3,2-c][1]benzazepin-11-yl)-N-cyano-N'-(4-pyridinylmethyl)-1-piperazine-carboximidamide], 0.14 µM; with `CSC(=NC#N)N1CCC(=C2c3ccc(Cl)cc3SCc3cccnc32)CC1` [Example 22], 0.2 µM.
Take `O=C(Cc1ccncc1)N1CCC(=C2c3ccc(Cl)cc3S(=O)(=O)Cc3cccnc32)CC1` [Example 16B, 4-(8-Chloro-5,11-dihydro-[1]benzothiepino[4,3-b]pyridin-11-ylidene)-1-(4-pyridine-acetyl)piperidine 6,6-dioxide]: the IC50 was 0.56 µM.
In the case of `O=C(CSc1ccncc1)N1CCN(C2c3ccc(Cl)cc3SCc3cccnc32)CC1` (centres unmarked) [Example 14A, 4-(8-Chloro-5,11-dihydro-[1]benzothiepino[4,3-b]pyridin-11-yl)-1-[(4-pyridinyl-thio)acetyl]piperazine] it was 1 µM; in that of `CN1Cc2cccnc2C(N2CCN(C(=O)Cc3cc[n+]([O-])cc3)CC2)c2ccc(Cl)cc21` (centres unmarked) [Example 34], 2.7 µM.
With “4-(8-Chloro-5,11-dihydro-[1]benzothiepinof4,3-b]pyridin-11-yl)-1-(4-pyridine-acetyl)piperazine N1,6,6-trioxide [Example 17B]” the figure was greater than 1.2 µM; with `NC(=O)N1CCC(CC(=O)N2CCC(=C3c4ccc(Cl)cc4SCc4cccnc43)CC2)CC1` [Example 15B, 4-[2-[4-(8-Chloro-5,11-dihydro-[1]benzothiepino[4,3-b]pyridin-11-ylidene)-1-piperidinyl]-2-oxoethyl]-1-piperidinecarboxamide], 0.92 µM.

The values are drawn from patent US6130229A, “Tricyclic compounds having activity as RAS-FPT inhibitors” (Schering Corporation, priority 1997, dated 2000).
